The values below come from PubChem BioAssay AID849 (SRMLSC, 2007).

Structures are written as SMILES. Activity calls are given as the source filed them. How the calls were made is not given here.

For this experiment, the system named is Saccharomyces cerevisiae lifespan shortening, growth inhibition. Kind of experiment: yeast lifespan shortening compounds, dose response (AID 849).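 Further: yeast growth read as optical density after two days at 30 degrees C.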
As to `O=[N+]([O-])c1cc(Cc2ccccc2)cc(C=Nc2ccc(N3CCOCC3)cc2)c1O`, the IC50 (usually the concentration needed to halve the response being measured) was > 100 µM (inactive).
As to `O=C(O)c1cc2c(ccc3ccccc32)oc1=O`, the IC50 was 11.9 µM.
On to `CC(=O)O/N=C/c1c(N2CCOCC2)n(C)c2ccccc12`, for which the concentration for half-maximal inhibition (IC50) was 12.4 µM.
As for `CC1(C)Cc2c(C#N)c(N)sc(=S)c2CO1`, the IC50 was > 100 µM (inactive).
For `CCCCN(CCCC)C(=S)N/N=C/c1c(C)[nH]n(-c2ccccc2)c1=O`, the concentration for half-maximal inhibition (IC50) is 38.9 µM.
Next, `O=C(CC(=O)c1ccccc1O)c1ccc(F)cc1`: > 100 µM (inactive); `CCCc1ccc(OCC(=O)NNC(=S)NC(=O)c2ccco2)cc1`: 15.1 µM.
Consider `S=C(NCC1CCCCC1)Nc1ccc(Oc2ccccc2)cc1`, for which the IC50 was > 100 µM (inactive).
For the compound `CCCCc1ccc(NC(=S)Nc2ccc(Nc3ccc(OC)cc3)cc2)cc1`, the concentration for half-maximal inhibition (IC50) was 33.1 µM.
As to `CCC(C)/C(C)=N/NC(=O)c1ccc(COc2ccc(Cl)c(C)c2)cc1` (configuration not stated), the half-maximal inhibitory concentration (IC50) was 21.9 µM.
As to `O=C(CC(=O)c1cc(Cl)ccc1O)c1ccccc1`, the IC50 is > 100 µM (inactive).
With `COc1ccc(NC(=O)CC2SC(=Nc3ccccc3)NC2=O)c(OC)c1` (configuration not stated), the IC50 was > 100 µM (inactive).
Consider `Cc1ccc(/C=C2\C(=O)Nc3ccccc32)o1`, for which the IC50 was > 100 µM (inactive).
On to `Cc1ccc(C(C[N+](=O)[O-])n2nc(C)cc2C)cc1` (configuration not stated), for which the half-inhibitory concentration (IC50) was 19.1 µM.
On to `CCn1c(=O)c(C(=O)Nc2nc3ccccc3[nH]2)c(O)c2ccccc21`, for which the IC50 is > 100 µM (inactive).
Take `Cc1c(C=O)c2ccccn2c1C(=O)c1ccncc1`: the IC50 is > 100 µM (inactive).
As to `CCOC(=O)/C(=N\Nc1cccc(C(F)(F)F)c1)N(CCOC)CCOC`, the IC50 is > 100 µM (inactive).
For the compound `c1ccc(-c2nnc(-c3ccccn3)nc2NC2CCCCC2)cc1`, the IC50 is 12.5 µM.
Next, `CCc1cc2c(cc(C(=O)O)n2C)s1`: 38.2 µM; `Cc1ccc(O)c(-c2cc(-c3ccccc3C)[nH]n2)c1`: 24.3 µM; `CC(C)(C)c1nnc(N/N=C/c2cc(Br)ccc2O)n(N)c1=O`: 50 µM.
Consider `CC(Nc1ccc(Br)cn1)c1cc(Cl)ccc1O` (configuration not stated), for which the IC50 was > 100 µM (inactive).
To `Cc1oc(-c2ccc3c(c2)OCCO3)cc1C(=O)O` belongs 16.8 µM; to `Cc1ccc2nc(/C(C#N)=C\c3ccc([N+](=O)[O-])o3)[nH]c2c1`, 18.9 µM.
Next, `OC(Cn1cncn1)(c1ccccc1)c1ccccc1`: 13.9 µM; `CCCCOc1ccc(C(=O)NNC(=S)NC(=O)CC)cc1`: 41.5 µM.
As for `OCc1ccc(O)c2ncccc12`, the 50% inhibitory concentration (IC50) was 32.2 µM.
As to `O=C(O)CSc1nc(-c2ccc(Cl)cc2)nc2c1oc1ccccc12`, the IC50 was 38 µM.
`CC(=O)N1N=C(c2ccc(Cl)cc2)OC1(C)C`: the IC50 was > 100 µM (inactive).
As for `CC1(C)CC(=NOC(=O)c2ccccc2)CC(C)(C)N1O`, the IC50 is 8.22 µM.
For `CCn1ncc(C2=NOC(C(=O)Nc3c(C)n(C)n(-c4ccccc4)c3=O)C2)c1C` (configuration not stated), the IC50 is > 100 µM (inactive).
Consider `O=c1c2c([N+](=O)[O-])cc([N+](=O)[O-])cc2sn1-c1ccc(Br)cc1`, for which the IC50 was > 100 µM (inactive).
Take `Cc1cc(O)c(/C=N/Nc2cccc(Cl)c2)c(=O)o1`: the IC50 was 40.3 µM.
To `CC12C(=O)N(c3cccc4cccnc34)C(=O)C1C1C=CC2C1` (configuration not stated) belongs > 100 µM (inactive).
Regarding `Cc1nc2ccccc2c2nc3ccccc3n12`, the half-inhibitory concentration (IC50) is 5.3 µM.
Take `O=C1OCC(CO)(CO)N=C1NNc1ccccc1Cl`: the half-maximal inhibitory concentration (IC50) is 6.45 µM.
As for `Cc1ccc2nc(-c3ccc(NS(C)(=O)=O)cc3)cc(-c3ccccc3)c2c1`, the half-maximal inhibitory concentration (IC50) is 43.2 µM.
To `Cc1ccc(-c2nnc3ccc(SC(C)C(=O)O)nn23)cc1` (configuration not stated) belongs > 100 µM (inactive); to `CC(C)(C)c1cc(C(c2cccnc2)N2CCN(CCO)CC2)cc(C(C)(C)C)c1O` (configuration not stated), 17.3 µM; to `COC(=O)Cc1cc(=O)n(-c2nc3ccccc3[nH]2)[nH]1`, 21.7 µM.
With `c1cncc(-c2nnc(-c3cccnc3)nn2)c1`, the half-inhibitory concentration (IC50) was 25.9 µM.
With `O=C(COc1ccccc1)N1CCN=C1SCc1cccnc1`, the IC50 is > 100 µM (inactive).
`c1ccc(Cc2nnc3sc(-c4ccco4)nn23)cc1`: the IC50 is > 100 µM (inactive).
With `O=C(Nc1nc(-c2ccccn2)cs1)c1ccc(Cl)s1`, the IC50 is 2.85 µM.
Regarding `COc1ccc(NCc2ccc([N+](=O)[O-])s2)c(OC)c1`, the IC50 is 41.1 µM.
With `CC(C)(C)C(O)C(Oc1ccc(Cl)cc1)n1cncn1` (configuration not stated), the IC50 was 3.14 µM.
For `CNC(=O)c1cc2c(ccc3ccccc32)oc1=N`, the IC50 is 12.4 µM.
Take `FC(F)Sc1ccc(Nc2ncnc3nc[nH]c23)cc1`: the IC50 is > 100 µM (inactive).
Consider `CCCCNC(=S)NCc1ccc2c(c1)cc(C)n2C`, for which the IC50 is > 100 µM (inactive).
As to `CCCCCC/C(=N/O)c1ccccn1`, the half-maximal inhibitory concentration (IC50) is 10.3 µM.
Next, `O=C(O)c1ccc2c3c(ncnc13)-c1ccccc1C2=O`: 1.5 µM; `CC(=O)NC(CCS(C)(=O)=O)C(=O)Nc1ccc2c(c1)OCO2` (configuration not stated): > 100 µM (inactive).
`CN1C(=O)/C(=N/OC(=O)c2ccccc2)c2ccccc21`: the IC50 was > 100 µM (inactive).
Regarding `Cc1ccc(C(=O)O)cc1N=Cc1cc(Br)cc(Br)c1O`, the half-inhibitory concentration (IC50) was 37.4 µM.
Next, `COc1ccc(N/N=C(\C#N)C(N)=O)cc1`: > 100 µM (inactive); `CCC1CCCCN1C(=O)CSc1nnc(-c2ccc(OC)cc2)o1` (configuration not stated): > 100 µM (inactive); `O=C(Nc1nc(-c2ccccn2)cs1)c1ncc(Cl)c(Cl)c1Cl`: > 100 µM (inactive).
`Oc1c(CN2CCN(c3ccccn3)CC2)cc(Cl)c2cccnc12`: the 50% inhibitory concentration (IC50) is 37.2 µM.
To `Oc1c(N=Nc2ccccn2)ccc2ccccc12` belongs 15.5 µM; to `O=C(Nc1cccc(C(F)(F)F)c1)C(Sc1cccc[n+]1[O-])c1ccccc1` (configuration not stated), 21.5 µM; to `Cc1cc(C)c2c(N=NN(C)C)[nH]nc2n1`, 12.2 µM.
Consider `Cc1nnc(NC(=O)CSc2nnc(Cc3cccn3C)n2-c2ccccc2)s1`, for which the IC50 is > 100 µM (inactive).
As for `Nc1ccc(C(=O)OCC(=O)Nc2ccc3c(c2)OCO3)cc1[N+](=O)[O-]`, the IC50 was > 100 µM (inactive).
To `Cc1onc(-c2ccccc2)c1C(=O)NC(=S)NNC(=O)c1ccc(O)cc1O` belongs > 100 µM (inactive); to `CCCn1c(Nc2nc3ccccc3n2C)nc2ccccc21`, 43.3 µM.
For `c1ccc(Cc2nnc3sc(-c4ccc5c(c4)OCCO5)nn23)cc1`, the IC50 was > 100 µM (inactive).
To `CC(NC(=O)Nc1ccc(Cl)cc1)C(c1cccs1)N1CCOCC1` (configuration not stated) belongs > 100 µM (inactive).
Regarding `CCN(CC)c1ccc(S(=O)(=O)N2CCOCC2)cc1NC(=O)CSc1cccc[n+]1[O-]`, the concentration for half-maximal inhibition (IC50) is 16.7 µM.
With `CCOC(=O)c1c(-c2ccc(-c3ccccc3)cc2)csc1NC(=O)CCN1CCOCC1`, the IC50 is 19.1 µM.
For `CN1C(=O)C(O)(CC(=O)c2ccccc2O)c2cc(Br)ccc21` (configuration not stated), the IC50 was > 100 µM (inactive).
`Cc1ccccc1C(=O)NNC(=S)NC(=O)COc1ccccc1`: the IC50 is 46.3 µM.
Next, `C(=C\c1nc(N2CCCCCC2)c2ccccc2n1)/c1ccccc1`: 42.1 µM.
